# Values quoted from earlier work, collected in patent EP3815682A1, “A PERK KINASE INHIBITOR FOR TREATING DISEASES ASSOCIATED WITH ENDOPLASMIC RETICULUM STRESS” (Uniwersytet Medyczny w Lodzi, priority 2019, dated 2021).
# Columns and labels:
# pancreatic cells [1] = test system: pancreatic cells
# pancreatic cells [2] = settings: reason for not entering clinical trials
# [3] = biological target: T1, PERK kinase and eIF2α protein phosphorylation (Homo sapiens, UniProt Q9NZJ5); settings: Atkins et al.
# T1 sequence (Q9NZJ5 30-1116): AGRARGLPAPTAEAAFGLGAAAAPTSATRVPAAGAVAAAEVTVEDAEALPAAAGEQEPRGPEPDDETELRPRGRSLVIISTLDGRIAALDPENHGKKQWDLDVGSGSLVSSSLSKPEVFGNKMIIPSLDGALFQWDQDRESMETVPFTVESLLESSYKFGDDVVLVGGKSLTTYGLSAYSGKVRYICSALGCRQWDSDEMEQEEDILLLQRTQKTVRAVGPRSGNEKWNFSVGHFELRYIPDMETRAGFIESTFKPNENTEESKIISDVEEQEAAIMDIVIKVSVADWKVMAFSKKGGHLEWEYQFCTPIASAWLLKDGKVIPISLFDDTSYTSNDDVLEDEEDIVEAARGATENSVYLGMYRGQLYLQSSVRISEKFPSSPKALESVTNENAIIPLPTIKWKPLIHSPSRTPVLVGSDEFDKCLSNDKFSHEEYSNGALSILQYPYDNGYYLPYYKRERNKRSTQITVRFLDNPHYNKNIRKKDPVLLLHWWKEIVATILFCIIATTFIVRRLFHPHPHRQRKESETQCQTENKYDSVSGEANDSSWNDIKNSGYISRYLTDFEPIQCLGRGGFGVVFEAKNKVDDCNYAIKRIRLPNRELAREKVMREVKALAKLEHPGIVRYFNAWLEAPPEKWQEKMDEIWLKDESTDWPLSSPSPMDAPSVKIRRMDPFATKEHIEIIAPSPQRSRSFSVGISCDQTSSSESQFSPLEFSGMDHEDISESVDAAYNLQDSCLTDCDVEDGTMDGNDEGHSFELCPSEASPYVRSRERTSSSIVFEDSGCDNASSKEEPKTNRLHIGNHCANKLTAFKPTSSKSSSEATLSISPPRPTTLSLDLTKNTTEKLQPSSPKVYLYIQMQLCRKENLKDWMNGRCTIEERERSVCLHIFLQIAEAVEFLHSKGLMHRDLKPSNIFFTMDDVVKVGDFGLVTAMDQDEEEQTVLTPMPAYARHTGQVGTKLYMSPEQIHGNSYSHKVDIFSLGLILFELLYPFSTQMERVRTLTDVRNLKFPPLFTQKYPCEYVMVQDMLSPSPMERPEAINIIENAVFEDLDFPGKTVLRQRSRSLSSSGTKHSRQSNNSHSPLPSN
# [4] = not told
# [5] = animals administered the inhibitor
structure (smiles),measurement,setting,value
Cn1cc(-c2ccc3c(c2)CCN3C(=O)Cc2cccc(C(F)(F)F)c2)c2c(N)ncnc21 [GSK2606414],level of phosphorylated forms of PERK and eIF2α,PERK and eIF2α; compared with mice not administered the inhibitor,substantially lower
same,protein synthesis in cells,"PERK and eIF2α; mouse, in vivo",temporary restoration of protein synthesis
same,glycemia,pancreatic cells [1]; [5],hyperglycemia
same,weight,pancreatic cells [1]; [5],significant weight loss
same,effect on pancreatic cells,pancreatic cells [1]; mice,cytotoxic effect
Cc1cccc(CC(=O)N2CCc3c2ccc(-c2cn(C)c4ncnc(N)c24)c3F)n1 [GSK2656157],activity on pancreatic cells,pancreatic cells [2],non-selective activity also on pancreatic cells
same,inhibition of PERK kinase and eIF2α protein phosphorylation,[3],effective inhibition
O=C(COc1ccc(Cl)cc1)NC1CCC(NC(=O)COc2ccc(Cl)cc2)CC1 (stereo not shown) [ISRIB],permeability of the blood-brain barrier,[4],good permeability
O=C(/C=C/c1ccccc1)NC(NC(=S)Nc1cccc2cccnc12)C(Cl)(Cl)Cl (stereo not shown) [Salubrinal],survival,eIF2α phosphorylation; compared with animals that did not receive the compound,died quicker
same,eIF2α phosphorylation,"eIF2α phosphorylation; mouse, in vivo",increase
